# Experimental data from patent publication US10196359B2, “2-alkyloxy benzene formyl arylamine compound and pharmaceutical use thereof” (FUDAN UNIVERSITY, priority 2014, dated 2019).
# Like-named read-outs stand apart in the source and are kept apart here.
# Molecular target: T1, Sphingomyelin Synthase 2 (SMS2) (Homo sapiens, UniProt Q8NHU3)
# T1 construct: made in house; used as homogenate
# T1 sequence (Q8NHU3 1-365): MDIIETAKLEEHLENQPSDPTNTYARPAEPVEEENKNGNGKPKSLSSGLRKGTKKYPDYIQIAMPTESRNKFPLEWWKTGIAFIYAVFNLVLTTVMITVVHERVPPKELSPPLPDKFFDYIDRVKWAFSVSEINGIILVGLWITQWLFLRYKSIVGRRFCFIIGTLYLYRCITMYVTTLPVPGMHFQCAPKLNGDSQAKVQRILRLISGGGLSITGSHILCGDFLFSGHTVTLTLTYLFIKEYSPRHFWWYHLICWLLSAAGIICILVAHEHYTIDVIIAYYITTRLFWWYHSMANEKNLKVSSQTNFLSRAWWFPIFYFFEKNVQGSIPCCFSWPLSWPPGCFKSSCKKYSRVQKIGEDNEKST
# Test: In vitro inhibition of sphingomyelin synthase 2, HPLC fluorogenic quantitative detecting method (C6-NBD-ceramide to C6-NBD-SM, SMS2 high-expressed insect cell homogenate)
# Format: biochemical
# Details: for IC50: read-out: SMS2 Median Inhibitory Concentration IC50
# Source text: The second aim of the present invention is to show the use of 2-alkoxy benzene formyl arylamines in preparing SMS small-molecule inhibitors. This invention evaluate SMS inhibitory activity of 2-alkoxy benzene formyl arylamines as scheme I through HPLC fluorogenic quantitative detecting method reported (Xiaodong Deng; Hong Sun; et al. Analytical Letters, 2012, 45:12, 1581-1589), which can make it possible to calculate the catalytic activity difference of SMS treated with inhibitors or not through content changes of NBD-ceramide and NBD-sphingomyelin.
# 9. The organic solvents were purchased from Shanghai Sinopharm Reagent Company; methanol is of HPLC grade; water is ultrapure water filtrated by Milli-Q pump and deionized and ultrafiltrated by 0.22 μm ultrafiltration membrane. Other biological supplies are purchased in domestic companies. 10. Preparation of SMS homogenate extraction buffer (Buffer1): (50 mM Tris hydrochloride, pH 7.4, 5% anhydrous sucrose, 1 mM ethylenediaminetetraacetic acid) 1.2114 g tris(hydroxymethyl)aminomethane hydrochloride (Tris-HCl) was dissolved in 100 ml distilled water. Then 84 ml 0.1 mol/L hydrochloric acid was added. Constant volume to 200 ml. Finally, 10 g sucrose and 58.45 mg EDTA were dissolved in the mixture. 11. Preparation of SMS test buffer […]: (100 mM Hepes, 30 mM MnCl2, 3% fatty acid free BSA): 1.1916 g 4-(2-hydroxyethyl)-1-peperazineethanesulfonic acid (Hepes), 0.2969 g MnCl2.4H2O and 0.3 g fatty acid free bovine serum albumin were dissolved in distilled water then constant volume to 50 ml. 12. Preparation of under tested compound solution: To each accurate weighed compound for 1˜2 mg, an appropriate amount of DMSO was added to formulate a stock solution of 6 mM precisely. To a certain volume of the DMSO stock solution of the test compound, the appropriate volume of DMSO was added to dilute the solution to the desired concentration. 13. SMS2 high-expressed insect cell homogenate was prepared by Xu Yanhui group from Institutes of Biomedical Sciences, Fudan University. Part 1 Activity Assay for Inhibition of 2-Alkoxy-Benzoyl Aromatic Amines to Sphingomyelin Synthase 2
# 250 μL tri-distilled water, 30 μL Buffer2, 4 μL SMS2 high-expressed insect cell homogenate (total protein content is 0.5 μg/μL) and 10 μL DMSO or DMSO solution of under tested compound were added to 1.5 mL eppendorf tube, vortex mixed for 30 seconds and then incubated in a 37° C. water bath for 0.5 h. 3 μL ethanol solution of DMPC (40 mM) and 3 μL ethanol solution of C6-NBD-Ceramide (1.16 mM) were added, vortex mixed for 30 seconds, and then incubate in a 37° C. water bath for 2.0 hours. To it 600 μL anhydrous ethanol was added vortex mixed for 1 minute and centrifuged 10 minutes in 10000 rpm and 600 μL supernatant was taken out and stored at 4° C. for HPLC analysis.
# Using the same HPLC fluorogenic quantitative detecting method as reference (Xiaodong Deng; Hong Sun; et al. Analytical Letters, 2012, 45:12, 1581-1589) to analysize samples obtained above. Analysize and record peak areas of C6-NBD-SM (Asm) and C6-NBD-Ceramide (Acer) of each sample from blank group, positive control group (compound D2) and under tested compound group. The data were parallelly determined for 3 times. Calculate inhibition rate from the formula below: […]
# The DMSO stock solution of under tested compound (6 mM) was diluted stepwise into five concentration gradient. 10 μL solution of each concentration was added into the trial system to prepare samples with the method mentioned in the first step of application case 12. The Asm values of the five concentration solution of tested compound were measured, and the inhibition rate under the five concentration were calculated and fitted to obtain median inhibitory concentration (IC50). Each compound was measured three parallel groups. SMS2 median inhibitory concentration of Scheme I-1˜I-60 are listed below in Table 1: […]
# [1] = five concentrations, three parallel groups, experimental value
# [2] = at 10 μM, read-out: inhibition rate
# [3] = at 50 μM, read-out: inhibition rate
compound,measurement,setting,value
"Cc1c(Cl)cccc1COc1ccccc1C(=O)Nc1cccnc1 [Scheme I-44, 2-((3-chloro-2-methyl)benzyloxy)-N-(pyridin-3-yl) benzamide]",inhibition rate,at 5 μM,47.0%
same,IC50,[1],3800 nM
"O=C(Nc1cccnc1)c1cc(Cl)ccc1OCc1cc(F)ccc1Cl [Scheme I-55, 5-chloro-2-((2-chloro-5-fluoro)benzyloxy)-N-(pyridin-3-yl) benzamide]",inhibition at 10 µM,[2],31.7%
same,IC50,[1],> 25000 nM
"Cc1ccc(Cl)cc1COc1ccccc1C(=O)Nc1cccnc1 [Scheme I-43, 2-((5-chloro-2-methyl)benzyloxy)-N-(pyridin-3-yl) benzamide]",inhibition rate,at 5 μM,74.8%
same,IC50,[1],1100 nM
"CCCCCCOc1ccccc1COc1ccccc1C(=O)Nc1cccnc1 [Scheme I-37, 2-((2-hexyloxy)benzyloxy)-N-(pyridin-3-yl) benzamide]",inhibition rate,at 10 μM,90.2%
same,IC50,[1],700 nM
CCOC(=O)COc1cccc(COc2ccccc2C(=O)Nc2cccnc2)c1 [Scheme I-22],inhibition at 10 µM,[2],15.3%
same,IC50,[1],> 100000 nM
2-((4-methyl) benzyloxy)-N-(pyridin-3-yl) benzamide [Scheme I-14],inhibition rate,at 50 μM,69.0%
same,IC50,[1],> 25000 nM
"O=C(Nc1cccnc1)c1ccc(Br)cc1OCc1ccccc1Cl [Scheme I-58, 4-bromo-2-(2-chloro-benzyloxy)-N-(pyridin-3-yl) benzamide]",inhibition at 10 µM,[2],19.4%
same,IC50,[1],> 50000 nM
"O=C(Nc1cccnc1)c1ccccc1OCc1cccc(F)c1 [Scheme I-2, 2-(3-fluoro-benzyloxy)-N-(pyridin-3-yl) benzamide]",IC50,,1600 nM
same,inhibition at 5 µM,read-out: inhibition rate,69.3%
"Cc1cccc(COc2ccccc2C(=O)Nc2cccnc2)c1 [Scheme I-10, 2-((3-methyl)benzyloxy)-N-(pyridin-3-yl) benzamide]",inhibition at 50 µM,[3],69.5%
same,IC50,[1],> 25000 nM
2-((2-ethyl) benzyloxy)-N-(pyridin-3-yl) benzamide [Scheme I-27],inhibition rate,at 5 μM,78.4%
same,IC50,[1],900 nM
"Cc1ccccc1COc1ccccc1C(=O)Nc1cccnc1 [Scheme I-11, 2-((2-methyl)benzyloxy)-N-(pyridin-3-yl) benzamide]",IC50,,1500 nM
same,inhibition at 5 µM,read-out: inhibition rate,71.3%
"COc1ccc(OCc2ccccc2Cl)c(C(=O)Nc2cccnc2)c1 [Scheme I-59, 2-(2-chloro-benzyloxy)-5-methoxy-N-(pyridin-3-yl) benzamide]",inhibition at 10 µM,[2],7.2%
same,IC50,[1],> 100000 nM
"CCCCCCCOc1ccccc1COc1ccccc1C(=O)Nc1cccnc1 [Scheme I-38, 2-((2-heptyloxy)benzyloxy)-N-(pyridin-3-yl) benzamide]",inhibition at 10 µM,[2],90.5%
same,IC50,[1],500 nM
2-((5-fluoro-2-methyl) benzyloxy)-N-(pyridin-3-yl) benzamide [Scheme I-21],inhibition rate,at 10 μM,84.7%
same,IC50,[1],700 nM
2-((4-ethyl) benzyloxy)-N-(pyridin-3-yl) benzamide [Scheme I-28],inhibition rate,at 10 μM,10.1%
same,IC50,[1],> 100000 nM
"O=C(Nc1cccnc1)c1ccccc1OCc1c(F)cccc1Cl [Scheme I-32, 2-((2-chloro-6-fluoro)benzyloxy)-N-(pyridin-3-yl) benzamide]",IC50,,1500 nM
same,inhibition at 10 µM,read-out: inhibition rate,82.3%
2-((2-benzyloxy) benzyloxy)-N-(pyridin-3-yl) benzamide [Scheme I-26],inhibition rate,at 10 μM,76.9%
same,IC50,[1],2200 nM
"COc1ccccc1COc1ccccc1C(=O)Nc1cccnc1 [Scheme I-24, 2-((2-methoxy)benzyloxy)-N-(pyridin-3-yl) benzamide]",inhibition at 10 µM,[2],89.4%
same,IC50,[1],800 nM
"2-((2,5-dimethoxy) benzyloxy)-N-(pyridin-3-yl) benzamide [Scheme I-25]",inhibition rate,at 10 μM,78.9%
same,IC50,[1],2800 nM
"O=C(Nc1cccnc1)c1ccccc1OCc1cccc(Cl)c1 [Scheme I-7, 2-(3-chloro-benzyloxy)-N-(pyridin-3-yl) benzamide]",IC50,,1400 nM
same,inhibition at 5 µM,read-out: inhibition rate,70.6%
"O=C(Nc1cccnc1)c1ccccc1OCc1ccccc1OCCCCCCl [Scheme I-35, 2-(2-(5-chloro-pentoxy)benzyloxy)-N-(pyridin-3-yl) benzamide]",inhibition at 10 µM,[2],91.3%
same,IC50,[1],700 nM
"O=C(Nc1cccnc1)c1ccc(Cl)cc1OCc1ccccc1Cl [Scheme I-56, 4-Chloro-2-(2-chloro-benzyloxy)-N-(pyridin-3-yl) benzamide]",inhibition at 10 µM,[2],20%
same,IC50,[1],> 50000 nM
2-((5-chloro-2-heptyloxy) benzyloxy)-N-(pyridin-3-yl) benzamide [Scheme I-40],inhibition rate,at 5 μM,87.1%
same,IC50,[1],400 nM
2-(3-cyano-benzyloxy)-N-(pyridin-3-yl) benzamide [Scheme I-4],inhibition rate,at 50 μM,66.0%
same,IC50,[1],60700 nM
"O=C(Nc1cccnc1)c1ccccc1OCc1ccccc1OCCCCCl [Scheme I-34, 2-(2-(4-chlorobutoxy)benzyloxy)-N-(pyridin-3-yl) benzamide]",inhibition at 10 µM,[2],85.5%
same,IC50,[1],1400 nM
"O=C(Nc1cccnc1)c1ccccc1OCc1ccccc1F [Scheme I-1, 2-(2-fluoro-benzyloxy)-N-(pyridin-3-yl) benzamide]",IC50,,3500 nM
same,inhibition at 5 µM,read-out: inhibition rate,53.8%
"O=C(Nc1cccnc1)c1cc(Cl)ccc1OCc1c(Cl)cccc1Cl [Scheme I-54, 5-chloro-2-((2,6-dichlorophenyl)benzyloxy)-N-(pyridin-3-yl) benzamide]",inhibition at 10 µM,[2],42.3%
same,IC50,[1],> 25000 nM
"O=C(Nc1cccnc1)c1ccccc1OCc1ccccc1C(F)(F)F [Scheme I-42, 2-((2-trifluoromethyl)benzyloxy)-N-(pyridin-3-yl) benzamide]",inhibition rate,at 5 μM,65.5%
same,IC50,[1],2100 nM
2-((2-chloro-5-fluoro) benzyloxy)-N-(pyridin-3-yl) benzamide [Scheme I-16],inhibition rate,at 5 μM,75.7%
same,IC50,[1],700 nM
"2-((2,5-dichloro) benzyloxy)-N-(pyridin-3-yl) benzamide [Scheme I-33]",inhibition rate,at 10 μM,87.9%
same,IC50,[1],1000 nM
"O=C(Nc1cccnc1)c1ccccc1OCc1cccc([N+](=O)[O-])c1 [Scheme I-3, 2-(3-nitro-benzyloxy)-N-(pyridin-3-yl) benzamide]",inhibition at 50 µM,[3],64.6%
same,IC50,[1],> 50000 nM
2-((2-methoxy-5-chloro) benzyloxy)-N-(pyridin-3-yl) benzamide [Scheme I-31],inhibition rate,at 10 μM,92.4%
same,IC50,[1],700 nM
2-((2-nitro) benzyloxy)-N-(pyridin-3-yl) benzamide [Scheme I-12],inhibition rate,at 50 μM,35.5%
same,IC50,[1],> 50000 nM
"O=C(Nc1ccccn1)c1ccccc1OCc1ccccc1 [Scheme I-52, 2-benzyloxy-N-(pyridin-2-yl) benzamide]",inhibition at 100 µM,"at 100 μM, read-out: inhibition rate",60.1%
same,IC50,[1],11700 nM
"O=C(Nc1cccnc1)c1ccccc1OCc1cc(Cl)ccc1OCCN1CCOCC1 [Scheme I-51, 2-((5-chloro-2-(2-morpholino-ethoxy))benzyloxy)-N-(pyridin-3-yl) benzamide]",inhibition at 10 µM,[2],24.9%
same,IC50,[1],> 50000 nM
